Columns and labels:
Folsomia candida = details: chronic/long-term; duration: 28 days; reproduction
Typhlodromus pyri = assay: LR50; higher = less toxic; details: not reported; mortality
Mus musculus = details: chronic; duration: 18 months; histopathology: neoplastic
Tagia sp. = details: chronic/long-term; duration: 56 days; other
Colinus virginianus = details: reproduction developmental; duration: 22 weeks
Apis mellifera = details: acute, mortality
Pimephales promelas = details: chronic/long-term
Daphnia magna = details: chronic/long-term; duration: 21 days
Bibionidae = details: chronic/long-term; duration: 28 days
Oncorhynchus mykiss = details: acute; mortality

SMILES | NOEC (Folsomia candida) | LR50 (Typhlodromus pyri) | LOAEL (Rattus norvegicus; acute, neurology) | NOAEL (Rattus norvegicus; reproduction developmental, M, body weight) | NOAEL (Rattus norvegicus; subchronic, duration: 90 days, oral, organ weight) | NOAEL (Mus musculus) | NOEC (Tagia sp.) | NOEL (Colinus virginianus) | LD50 (Apis mellifera; dermal) | LD50 (Apis mellifera; oral, unspecified) | NOEC (Pimephales promelas) | NOEC (Daphnia magna) | NOEC (Bibionidae) | LD50 (Oncorhynchus mykiss)
CC(=O)C(C)(C)NC(=O)c1cc(Cl)cc(Cl)c1 [Benzamide, 3,5-dichloro-N-(1,1-dimethyl-2-oxopropyl)-] | 20 mg/kg |  |  |  |  |  |  |  |  |  |  |  |  | 
C#CC(C)(C)NC(=O)c1cc(Cl)cc(Cl)c1 [Propyzamide] | 1.4 mg/kg | 1890 g/ha | 40 mg/kg-day | 12.1 mg/kg-day | 4.5 mg/kg-day | 5 mg/kg-day | 3.3 mg/kg | 30.9 mg/kg-day | > 100 µg/piece | > 100 µg/piece | 0.224 mg/L | 0.6 mg/L | 0.34 mg/L | > 4.7 mg/L

From EPA's ToxValDB 9.5 (doi:10.2903/j.efsa.2016.4554)
